Active and inactive are the calls of the source. The calls are words filed in the database; no cut-off is given here.

Series [1] relates to Rattus norvegicus. The experiment in a line: Reversal of MCT-induced Sprague-Dawley rat model of elastic fiber hyperplasia at 43.3 mg/kg, po administered daily for 14 days starting from 14 days post-MCT challenge and measured post-last dose by elastic fibres staining-based microscopic analysis. Format: functional, organism-based.
Series [2] deals with Rattus norvegicus. The series can be described thus: Anti-hypersensitive activity in MCT-induced pulmonary arterial hypertension Sprague-Dawley rat model assessed as right ventricular systolic pressure at 15.5 mg/kg, po administered daily for 14 days starting from 14 days post-MCT challenge and measured post-last dose by pressure transducer-coupled polygraphy (reference value: 59.06 +/- 3.26 mmHg). The format is functional.

Series [3] has as its system Rattus norvegicus. The experiment in a line: Anti-hypersensitive activity in MCT-induced pulmonary arterial hypertension Sprague-Dawley rat model assessed as reduction in cardiomyocyte hypertrophy by measuring cross-sectional area of cardiomyocyte at 15.5 mg/kg, po administered daily for 14 days starting from 14 days post-MCT challenge and measured post-last dose by hematoxylin and eosin staining-based microscopic analysis (reference value: 418 +/- 50.88 micrometer2). The format is functional.

In series [4] the test system is Rattus norvegicus. The experiment in a line: Anti-hypersensitive activity in MCT-induced pulmonary arterial hypertension Sprague-Dawley rat model assessed as pulmonary artery medial thickness at 15.5 mg/kg, po administered daily for 14 days starting from 14 days post-MCT challenge and measured post-last dose by hematoxylin and eosin staining-based microscopic analysis (reference value: […] +/- […]). Format: functional.

In series [5] the test system is Rattus norvegicus. The series can be described thus: Anti-hypersensitive activity in MCT-induced pulmonary arterial hypertension Sprague-Dawley rat model assessed as lung fibrosis at 15.5 mg/kg, po administered daily for 14 days starting from 14 days post-MCT challenge and measured post-last dose by Masson's trichrome staining-based microscopic analysis (reference value: 6.12 +/- 1.66%). The format is functional.

Series [6] deals with Rattus norvegicus. The experiment in a line: Anti-hypersensitive activity in MCT-induced pulmonary arterial hypertension Sprague-Dawley rat model assessed as right ventricular hypertrophy index at 15.5 mg/kg, po administered daily for 14 days starting from 14 days post-MCT challenge and measured post-last dose by pressure transducer-coupled polygraphy (reference value: […]). Format: functional.

For series [7], the system named is Rattus norvegicus. The series can be described thus: Anti-hypersensitive activity in MCT-induced pulmonary arterial hypertension Sprague-Dawley rat model assessed as reduction in cardiomyocyte hypertrophy by measuring cardiac fibrosis at 15.5 mg/kg, po administered daily for 14 days starting from 14 days post-MCT challenge and measured post-last dose by Masson's trichrome staining-based microscopic analysis (reference value: 11.74 +/- 3.24 %). Set-up: scale not given: the % may be the effect or the level left. The format is functional.

Series [8] deals with Rattus norvegicus. The series can be described thus: Anti-hypersensitive activity in MCT-induced pulmonary arterial hypertension Sprague-Dawley rat model assessed as mean pulmonary artery pressure at 15.5 mg/kg, po administered daily for 14 days starting from 14 days post-MCT challenge and measured post-last dose by pressure transducer-coupled polygraphy (reference value: 36 +/- 2.83 mmHg). Format: functional.

Series [9] concerns Rattus norvegicus. The experiment in a line: Hemodynamic activity in Sprague-Dawley rat assessed as effect on mean systemic arterial pressure at 15.5 mg/kg, po administered daily for 2 weeks by pressure transducer-coupled polygraphy. The format is ADME, organism-based. The conditions noted are these: in vivo, 336 h.
A short description of series [10]: AUC (0 to t) in Sprague-Dawley rat at 12.48 mg/kg, po by LC-MS/MS analysis. Format: ADME, organism-based. The conditions noted are these: in vivo.
A short description of series [11]: Plasma concentration in Sprague-Dawley rat at 12.48 mg/kg, po measured at 0.5 hrs by LC-MS/MS analysis. Format: ADME, organism-based.
The nature of series [12]: Plasma concentration in Sprague-Dawley rat at 12.48 mg/kg, po measured at 2 hrs by LC-MS/MS analysis. The format is ADME, organism-based.
Series [13] is described as follows: Tmax in Sprague-Dawley rat at 12.48 mg/kg, po by LC-MS/MS analysis. Format: ADME, organism-based. The conditions noted are these: in vivo.
In series [14] the test system is Rattus norvegicus. The experiment in a line: Hemodynamic activity in Sprague-Dawley rat assessed as effect on mean systemic arterial pressure at 37.5 mg/kg, po administered daily for 2 weeks by pressure transducer-coupled polygraphy. Format: ADME, organism-based. The conditions noted are these: in vivo, 336 h.
The test system of series [15] is Rattus norvegicus. The series can be described thus: Anti-hypersensitive activity in MCT-induced pulmonary arterial hypertension Sprague-Dawley rat model assessed as reduction in cardiomyocyte hypertrophy by measuring cross-sectional area of cardiomyocyte at 37.5 mg/kg, po administered daily for 14 days starting from 14 days post-MCT challenge and measured post-last dose by hematoxylin and eosin staining-based microscopic analysis (reference value: 418 +/- 50.88 micrometer2). Format: functional.

Series [16] relates to Rattus norvegicus. The experiment in a line: Anti-hypersensitive activity in MCT-induced pulmonary arterial hypertension Sprague-Dawley rat model assessed as reduction in cardiomyocyte hypertrophy by measuring cross-sectional area of cardiomyocyte at 37.5 mg/kg, po administered daily for 14 days starting from 14 days post-MCT challenge and measured post-last dose in presence of DCA by hematoxylin and eosin staining-based microscopic analysis (reference value: 418 +/- 50.88 micrometer2). Format: functional.

Series [17] is described as follows: Plasma concentration in Sprague-Dawley rat at 12.48 mg/kg, po measured at 1 hr by LC-MS/MS analysis. Format: ADME, organism-based.
Series [18] has as its system Rattus norvegicus. The experiment in a line: Anti-hypersensitive activity in MCT-induced pulmonary arterial hypertension Sprague-Dawley rat model assessed as right ventricular systolic pressure at 37.5 mg/kg, po administered daily for 14 days starting from 14 days post-MCT challenge and measured post-last dose in presence of DCA by pressure transducer-coupled polygraphy (reference value: 59.06 +/- 3.26 mmHg). Format: functional.

Series [19] has as its system Rattus norvegicus. The experiment in a line: Anti-hypersensitive activity in MCT-induced pulmonary arterial hypertension Sprague-Dawley rat model assessed as mean pulmonary artery pressure at 37.5 mg/kg, po administered daily for 14 days starting from 14 days post-MCT challenge and measured post-last dose in presence of DCA by pressure transducer-coupled polygraphy (reference value: 36 +/- 2.83 mmHg). Format: functional.

The nature of series [20]: Plasma concentration in Sprague-Dawley rat at 12.48 mg/kg, po measured at 0.25 hrs by LC-MS/MS analysis. Format: ADME, organism-based.
A short description of series [21]: AUMC (0 to t) in Sprague-Dawley rat at 12.48 mg/kg, po by LC-MS/MS analysis. The format is ADME, organism-based. To be noted: in vivo.
A short description of series [22]: Elimination rate constant in Sprague-Dawley rat at 12.48 mg/kg, po by LC-MS/MS analysis. Format: ADME, organism-based. The conditions noted are these: in vivo.
Series [23] is described as follows: Plasma concentration in Sprague-Dawley rat at 12.48 mg/kg, po measured at 4 hrs by LC-MS/MS analysis. Format: ADME, organism-based.
A short description of series [24]: AUC (0 to infinity) in Sprague-Dawley rat at 12.48 mg/kg, po by LC-MS/MS analysis. Format: ADME, organism-based. Also on record: dose 12.48 mg/kg, time infinity, route oral. The conditions noted are these: in vivo.
Series [25] is described as follows: MRT in Sprague-Dawley rat at 12.48 mg/kg, po by LC-MS/MS analysis. The conditions noted are these: in vivo. Format: ADME, organism-based.
Series [26] has as its system Rattus norvegicus. The experiment in a line: Anti-hypersensitive activity in MCT-induced pulmonary arterial hypertension Sprague-Dawley rat model assessed as mean pulmonary artery pressure at 37.5 mg/kg, po administered daily for 14 days starting from 14 days post-MCT challenge and measured post-last dose by pressure transducer-coupled polygraphy (reference value: 36 +/- 2.83 mmHg). The format is functional.

Series [27] deals with Rattus norvegicus. The experiment in a line: Anti-hypersensitive activity in MCT-induced pulmonary arterial hypertension Sprague-Dawley rat model assessed as reduction in cardiomyocyte hypertrophy by measuring cardiac fibrosis at 37.5 mg/kg, po administered daily for 14 days starting from 14 days post-MCT challenge and measured post-last dose in presence of DCA by Masson's trichrome staining-based microscopic analysis (reference value: 11.74 +/- 3.24 %). Format: functional. Also on record: scale not given: the % may be the effect or the level left.

The subject of series [28] is Rattus norvegicus. The series can be described thus: Anti-hypersensitive activity in MCT-induced pulmonary arterial hypertension Sprague-Dawley rat model assessed as lung fibrosis at 37.5 mg/kg, po administered daily for 14 days starting from 14 days post-MCT challenge and measured post-last dose in presence of DCA by Masson's trichrome staining-based microscopic analysis (reference value: 6.12 +/- 1.66%). Format: functional.

In series [29] the test system is Rattus norvegicus. The series can be described thus: Anti-hypersensitive activity in MCT-induced pulmonary arterial hypertension Sprague-Dawley rat model assessed as lung fibrosis at 37.5 mg/kg, po administered daily for 14 days starting from 14 days post-MCT challenge and measured post-last dose by Masson's trichrome staining-based microscopic analysis (reference value: 6.12 +/- 1.66%). The format is functional.

The subject of series [30] is Rattus norvegicus. The series can be described thus: Anti-hypersensitive activity in MCT-induced pulmonary arterial hypertension Sprague-Dawley rat model assessed as pulmonary artery medial thickness at 37.5 mg/kg, po administered daily for 14 days starting from 14 days post-MCT challenge and measured post-last dose in presence of DCA by hematoxylin and eosin staining-based microscopic analysis (reference value: […] +/- […]). The format is functional.

In series [31] the test system is Rattus norvegicus. The series can be described thus: Anti-hypersensitive activity in MCT-induced pulmonary arterial hypertension Sprague-Dawley rat model assessed as pulmonary artery medial thickness at 37.5 mg/kg, po administered daily for 14 days starting from 14 days post-MCT challenge and measured post-last dose by hematoxylin and eosin staining-based microscopic analysis (reference value: […] +/- […]). Format: functional.

For series [32], the system named is Rattus norvegicus. The series can be described thus: Anti-hypersensitive activity in MCT-induced pulmonary arterial hypertension Sprague-Dawley rat model assessed as reduction in cardiomyocyte hypertrophy by measuring cardiac fibrosis at 37.5 mg/kg, po administered daily for 14 days starting from 14 days post-MCT challenge and measured post-last dose by Masson's trichrome staining-based microscopic analysis (reference value: 11.74 +/- 3.24 %). The format is functional. Also on record: scale not given: the % may be the effect or the level left.

The subject of series [33] is Rattus norvegicus. The experiment in a line: Anti-hypersensitive activity in MCT-induced pulmonary arterial hypertension Sprague-Dawley rat model assessed as right ventricular systolic pressure at 37.5 mg/kg, po administered daily for 14 days starting from 14 days post-MCT challenge and measured post-last dose by pressure transducer-coupled polygraphy (reference value: 59.06 +/- 3.26 mmHg). Format: functional.

In series [34] the test system is Rattus norvegicus. The series can be described thus: Hemodynamic activity in Sprague-Dawley rat assessed as effect on mean systemic arterial pressure at 37.5 mg/kg, po administered daily for 2 weeks in presence of DCA by pressure transducer-coupled polygraphy. Format: ADME, organism-based. To be noted: in vivo, 336 h.
Series [35] is described as follows: Cmax in Sprague-Dawley rat at 12.48 mg/kg, po by LC-MS/MS analysis. Format: ADME, organism-based. Also on record: dose 12.48 mg/kg, route oral. To be noted: in vivo.
Series [36] in a line: AUMC (0 to infinity) in Sprague-Dawley rat at 12.48 mg/kg, po by LC-MS/MS analysis. Format: ADME, organism-based. To be noted: in vivo.

On to `O=S(=O)(c1cccc2cnccc12)N1CCCNCC1`, for which the result in the series on Rattus norvegicus [1] was Active.

In the case of `O=C([O-])C(Cl)Cl.[Na+]` [SODIUM DICHLOROACETATE], the Activity in the series with Rattus norvegicus [2] was 57.4 mmHg; with Rattus norvegicus [3], 387.53 um2; in the series with Rattus norvegicus [4], 0.3; in the series on Rattus norvegicus [5], 12.45%; with Rattus norvegicus [7] it was 8.47%; in the series with Rattus norvegicus [8] it was 34 mmHg. For the same molecule, in the series on Rattus norvegicus [9], the Activity result is recorded as “Non-Toxic”. For the same molecule, the Activity_index in the series on Rattus norvegicus [6] is on record as 0.564.

Turning to `Cl.O=S(=O)(c1cccc2cnccc12)N1CCCNCC1` [FASUDIL HYDROCHLORIDE], the AUC(0-t) in series [10] was determined as 55.4 ng·h/mL. Moreover, the concentration at 0.5 h in [11] was 23.2 ng/mL. The molecule further had a concentration at 2 h in series [12] of 7.01 ng/mL. The time to peak (Tmax) in series [13] stood at 15 min. Moreover, the Activity result is given as “Non-Toxic” with Rattus norvegicus [14]; 354.35 um2 in the series on Rattus norvegicus [15]; 341.12 um2 in the series with Rattus norvegicus [16]; 51.13 mmHg in the series on Rattus norvegicus [18]; 29.83 mmHg in the series on Rattus norvegicus [19]; 32.83 mmHg in the series on Rattus norvegicus [26]. Also, the Activity in the series with Rattus norvegicus [27] is recorded as 3.84%; in the series on Rattus norvegicus [28] it was 6.71%; in the series on Rattus norvegicus [29], 6.41%; in the series with Rattus norvegicus [30], 0.2; with Rattus norvegicus [31], 0.21; in the series on Rattus norvegicus [32], 3.97%. In addition, the Activity with Rattus norvegicus [33] was 59.9 mmHg; in the series on Rattus norvegicus [34], “Non-Toxic”. In series [17], the concentration at 1 h was found to be 17.8 ng/mL. The concentration at 0.25 h in series [20] is 84.2 ng/mL. Besides, in series [21], the AUMCt amounted to 52.8 hr.hr.ng/ml. Moreover, the k el in [22] was 0.000253 s⁻¹. In addition, the concentration at 4 h in series [23] was 3.85 ng/mL. For the same molecule, the area under the curve AUC(0-inf) in [24] came out at 59.8 ng·h/mL. The molecule also gave an MRT in series [25] of 72 min. Besides, the highest level in series [35] (Cmax) was 84.2 ng/mL. In series [36], this molecule displayed an AUMC of 75.7 hr.hr.ng/ml.
